{
  "source": "patent US20220347167A1",
  "about": "“A NEW TREATMENT FOR MEIBOMIAN GLAND DYSFUNCTION” (The Schepens Eye Research Institute, Inc., priority 2019, published 2022)",
  "key": {"[1]": {"test_system": "apolipoprotein E-deficient (ApoE −/−) mice", "assay": "Serum cholesterol in ApoE −/− mice (cholesterol fluorometric assay kit)", "format": "in vivo, mouse", "details": "Roxa 10 mg/kg subcutaneous, three times per week for 12 weeks, vs vehicle, p<0.05", "description": "The whole blood samples of mice were collected by cardiac puncture after sacrificing. The blood samples were allowed to clot by leaving it undisturbed at room temperature for 15 minutes. The clot was removed by centrifuging at 1,000-2,000×g for 10 minutes in a refrigerated centrifuge. The resulting supernatant was designated serum. Then the cholesterol level in the serum was evaluated by using a commercially available cholesterol fluorometric assay kit (#10007640, Cayman Chemical, Mich.). The weight of each mice was measured before and after the experiment. The percentage of weight gain was compared between the Roxa-treated mice and the vehicle-treated mice.\nAt the beginning of the study, the 16 ApoE−/− mice and 4 wild-type (WT) C57BL/6J mice, 12 weeks of age, were measured for their weight, tear volume, corneal fluorescein staining and tear breakup time (TBUT). The ApoE −/− mice were randomly divide into 2 groups (n=8 mice/group) and treated with vehicle control (2% DMSO in sterile saline, subcutaneous injection) or Roxa (10 mg/kg, subcutaneous injection). The injections were administrated three times per week (on Monday, Wednesday, and Friday mornings) for 12 weeks. […] At the end of the study, the weight, tear volume, corneal fluorescein staining and tear breakup time (TBUT) were measured again. […]"}, "IHMGECs": {"test_system": "IHMGECs", "assay": "HPTLC analysis of nonpolar lipids and phospholipids in IHMGEC lipid extracts", "format": "cell-based, human", "details": "Roxa, 4 days", "description": "Authenticated IHMGECs were grown and passaged in keratinocyte serum-free medium (KSFM) with 5 ng/mL epidermal growth factor (EGF) and 50 μg/mL bovine pituitary extract (BPE) (Thermo Fisher Scientific, Waltham, Mass.) under 21% O2 (normoxia) [Liu et al. (2010) Investigative ophthalmology & visual science 51:3993-4005; McDermott et al. (2018) Current eye research 43:1097-1101; Liu et al. (2013) Investigative ophthalmology & visual science 54:2541-2550]. Upon reaching 60% to 70% confluence, culture media were replaced by a 1:1 mixture of Dulbecco's modified Eagle's medium and Ham's F12 (DMEM/F12, Corning Life Sciences, Tewksbury, Mass.), supplemented with 10% fetal bovine serum (FBS, Atlanta Biologicals, Flowery Branch, Ga.) [Sullivan et al. (2014) Investigative ophthalmology & visual science 55:3866-3877; Liu et al. (2014) JAMA ophthalmology 132:226-228]. Cells were cultured for 4-10 days under 21% O2 (normoxic) or 1% O2 (hypoxic) conditions. Culture plates of cells in the hypoxic condition were incubated inside hypoxia chambers filled with a premade 1% O2, 5% CO2 and 94% N2 gas mixture (Linde Gas North America, Hammond, Ind.), according to published protocols in Liu et al. (2019) The ocular surface 17(2):310-317 and Wright and Shay (2006) Nat Protoc 1:2088-2090. Following cell medium changes, the chambers were re-flushed with the gas mixture before returning to the incubator. Cells were cultured in the presence or absence of 50 μM Roxa (Selleck Chemical, Houston, Tex.) under normoxic or hypoxic conditions for 4 to 10 days. Cell culture experiments (n=3 wells/treatment) were repeated at least 3 times.\nCells seeded in 10-cm polystyrene-coated dishes (Corning, Falcon) were extracted with chloroform and methanol, and the lipid extractions were separated by high-performance thin-layer chromatography (HPTLC), as previously described in Liu et al. Toxicology 2014; 320:1-5, Liu and Ding (2014) Investigative ophthalmology & visual science 55:5596-5601, and Liu et al. (2015) Cornea 34:342-346. In brief, for nonpolar lipid analysis, the plate (Silica Gel 60, Merck, Darmstadt, Germany) was developed in hexane: diethyl ether: acetic acid (80:20:1.5, vol/vol/vol) alone. For phospholipids analysis, the plate was developed sequentially in chloroform:ethanol:water (60:30:5 vol/vol/vol) and then hexane:diethyl ether:acetic acid (80:20:1.5, vol/vol/vol) [Liu and Ding (2014) Investigative ophthalmology & visual science 55:5596-5601]. Bands were visualized according to published protocols [Ponec et al. (1988) Journal of lipid research 29:949-961], and the intensities of bands were quantified using ImageJ [Liu and Ding (2014) Investigative ophthalmology & visual science 55:5596-5601].\nTo examine whether 1% O2 exposure and/or Roxa administration stimulate the accumulation of neutral lipids within IHMGECs [Liu et al. (2019) Ocul Surf 17:310-317], IHMGECs were treated with Roxa ([…]) in either normoxic (21% O2) or hypoxic (1% O2) environments conditions for 4 days."}, "[2]": {"details": "under either normoxic or hypoxic conditions, vs controls"}},
  "data": [
    {"molecule": "Cc1nc(C(=O)NCC(=O)O)c(O)c2ccc(Oc3ccccc3)cc12", "note": "[Roxa, roxadustat]", "values": [
      {"measurement": "serum cholesterol level", "setting": "[1]", "value": "significantly reduced"},
      {"measurement": "amount of cholesterol esters in IHMGECs", "setting": "IHMGECs", "value": "Neither Roxa nor 1% O2 had any effect"},
      {"measurement": "amount of lysophosphatidylcholines in IHMGECs", "setting": "IHMGECs", "value": "Neither Roxa nor 1% O2 had any effect"},
      {"measurement": "amount of phosphatidic acid in IHMGECs", "setting": "IHMGECs", "value": "Neither Roxa nor 1% O2 had any effect"},
      {"measurement": "amount of phosphatidylcholine in IHMGECs", "setting": "IHMGECs", "value": "Neither Roxa nor 1% O2 had any effect"},
      {"measurement": "amount of phosphatidylethanolamine in IHMGECs", "setting": "IHMGECs", "value": "Neither Roxa nor 1% O2 had any effect"},
      {"measurement": "amount of phosphatidylinositol in IHMGECs", "setting": "IHMGECs", "value": "Neither Roxa nor 1% O2 had any effect"},
      {"measurement": "amount of wax esters in IHMGECs", "setting": "IHMGECs", "value": "Neither Roxa nor 1% O2 had any effect"},
      {"measurement": "expression of unidentified polar lipids in IHMGECs (HPTLC)", "setting": "IHMGECs", "value": "appeared to enhance"},
      {"measurement": "levels of free fatty acids (FFAs) in IHMGECs (HPTLC)", "setting": "IHMGECs; [2]", "value": "increased"},
      {"measurement": "levels of triglycerides in IHMGECs (HPTLC)", "setting": "IHMGECs; [2]", "value": "increased"}
    ]}
  ]
}
